Measured values published in the NIST ThermoML archive (doi:10.1021/je060271a).
± gives the expanded uncertainty stated by the source.

Conditions: 323.15 K, Liquid, Vibrating tube method

A mass density (1323 kPa) of 956.5 ± 1.2 kg/m3, a mass density (1328.9 kPa) of 956.5 ± 1.2 kg/m3 and a mass density (1421.1 kPa) of 956.7 ± 1.2 kg/m3 were found for CCCCCCC(=O)OCC(COC(=O)CCCCCC)(COC(=O)CCCCCC)COC(=O)CCCCCC [pentaerythritol tetraheptanoate] in this work. The mass density (1427.4 kPa) was 956.6 ± 1.2 kg/m3, the mass density (1434.2 kPa) was 956.7 ± 1.2 kg/m3 and the mass density (1442 kPa) was 956.6 ± 1.2 kg/m3. It also gave a mass density (1448.9 kPa) of 956.6 ± 1.2 kg/m3, a mass density (1457.1 kPa) of 956.6 ± 1.2 kg/m3 and a mass density (1463.5 kPa) of 956.7 ± 1.2 kg/m3. For the same molecule, the mass density (1470.3 kPa) was 956.7 ± 1.2 kg/m3, the mass density (1477.4 kPa) was 956.6 ± 1.2 kg/m3 and the mass density (1485.6 kPa) was 956.6 ± 1.2 kg/m3. It also gave a mass density (1492.5 kPa) of 956.6 ± 1.2 kg/m3, a mass density (1499.8 kPa) of 956.7 ± 1.2 kg/m3 and a mass density (1507.4 kPa) of 956.7 ± 1.2 kg/m3. It also gave a mass density (1523.2 kPa) of 956.6 ± 1.2 kg/m3, a mass density (1619.7 kPa) of 956.8 ± 1.2 kg/m3 and a mass density (1629.6 kPa) of 956.7 ± 1.2 kg/m3. It also gave a mass density (1719.4 kPa) of 956.9 ± 1.2 kg/m3, a mass density (1728.2 kPa) of 956.8 ± 1.2 kg/m3 and a mass density (1736.9 kPa) of 956.8 ± 1.2 kg/m3. It also gave a mass density (1745.9 kPa) of 956.8 ± 1.2 kg/m3, a mass density (1775.6 kPa) of 956.9 ± 1.2 kg/m3 and a mass density (2116.8 kPa) of 957.1 ± 1.2 kg/m3. It also gave a mass density (2152.2 kPa) of 957.1 ± 1.2 kg/m3, a mass density (2381.2 kPa) of 957.2 ± 1.2 kg/m3 and a mass density (2470.4 kPa) of 957.3 ± 1.2 kg/m3. For the same molecule, the mass density (2492.4 kPa) was 957.2 ± 1.2 kg/m3, the mass density (2508.4 kPa) was 957.3 ± 1.2 kg/m3 and the mass density (2527.1 kPa) was 957.3 ± 1.2 kg/m3. It also gave a mass density (2559.7 kPa) of 957.3 ± 1.2 kg/m3, a mass density (3115.5 kPa) of 957.7 ± 1.2 kg/m3 and a mass density (3137.8 kPa) of 957.7 ± 1.2 kg/m3. The mass density (3159 kPa) was 957.8 ± 1.2 kg/m3, the mass density (3207.3 kPa) was 957.8 ± 1.2 kg/m3 and the mass density (3229.7 kPa) was 957.7 ± 1.2 kg/m3. For the same molecule, the mass density (3644.1 kPa) was 958 ± 1.2 kg/m3, the mass density (3670.9 kPa) was 958.1 ± 1.2 kg/m3 and the mass density (3703.5 kPa) was 958.2 ± 1.2 kg/m3. It also gave a mass density (3731.4 kPa) of 958.2 ± 1.2 kg/m3, a mass density (3759.3 kPa) of 958.1 ± 1.2 kg/m3 and a mass density (3792.9 kPa) of 958.3 ± 1.2 kg/m3. For the same molecule, the mass density (3822.5 kPa) was 958.2 ± 1.2 kg/m3, the mass density (3850.4 kPa) was 958.2 ± 1.2 kg/m3 and the mass density (3884.5 kPa) was 958.2 ± 1.2 kg/m3. The mass density (3913.6 kPa) was 958.2 ± 1.2 kg/m3, the mass density (3943.3 kPa) was 958.4 ± 1.2 kg/m3 and the mass density (4059.8 kPa) was 958.5 ± 1.2 kg/m3. For the same molecule, the mass density (4061.6 kPa) was 958.4 ± 1.2 kg/m3, the mass density (4063.3 kPa) was 958.4 ± 1.2 kg/m3 and the mass density (8709 kPa) was 961.5 ± 1.2 kg/m3. For the same molecule, the mass density (8730.4 kPa) was 961.5 ± 1.2 kg/m3, the mass density (8752.3 kPa) was 961.6 ± 1.2 kg/m3 and the mass density (8778.6 kPa) was 961.5 ± 1.2 kg/m3. For the same molecule, the mass density (8802.6 kPa) was 961.5 ± 1.2 kg/m3, the mass density (8824.6 kPa) was 961.6 ± 1.2 kg/m3 and the mass density (8846.3 kPa) was 961.7 ± 1.2 kg/m3. It also gave a mass density (8868.4 kPa) of 961.6 ± 1.2 kg/m3, a mass density (8895.1 kPa) of 961.7 ± 1.2 kg/m3 and a mass density (8917.5 kPa) of 961.5 ± 1.2 kg/m3. For the same molecule, the mass density (8944.2 kPa) was 961.7 ± 1.2 kg/m3, the mass density (8967 kPa) was 961.7 ± 1.2 kg/m3 and the mass density (8990.1 kPa) was 961.6 ± 1.2 kg/m3. For the same molecule, the mass density (9017.1 kPa) was 961.7 ± 1.2 kg/m3, the mass density (9040.1 kPa) was 961.7 ± 1.2 kg/m3 and the mass density (9063.7 kPa) was 961.7 ± 1.2 kg/m3. For the same molecule, the mass density (9091.6 kPa) was 961.8 ± 1.2 kg/m3, the mass density (9116.3 kPa) was 961.8 ± 1.2 kg/m3 and the mass density (9139.9 kPa) was 961.8 ± 1.2 kg/m3. The mass density (9164 kPa) was 961.8 ± 1.2 kg/m3, the mass density (9192.5 kPa) was 961.9 ± 1.2 kg/m3 and the mass density (9216.2 kPa) was 961.8 ± 1.2 kg/m3. For the same molecule, the mass density (9269.5 kPa) was 962 ± 1.2 kg/m3, the mass density (9293.8 kPa) was 961.9 ± 1.2 kg/m3 and the mass density (9318.4 kPa) was 962 ± 1.2 kg/m3. The mass density (9348.8 kPa) was 961.9 ± 1.2 kg/m3, the mass density (9373.9 kPa) was 961.9 ± 1.2 kg/m3 and the mass density (9399.6 kPa) was 962 ± 1.2 kg/m3. It also gave a mass density (9431.8 kPa) of 962.1 ± 1.2 kg/m3, a mass density (9459.4 kPa) of 962.1 ± 1.2 kg/m3 and a mass density (9492.7 kPa) of 962.1 ± 1.2 kg/m3. It also gave a mass density (9518.2 kPa) of 962 ± 1.2 kg/m3, a mass density (9535.7 kPa) of 962 ± 1.2 kg/m3 and a mass density (9548.7 kPa) of 962.2 ± 1.2 kg/m3. The mass density (9563.6 kPa) was 962.2 ± 1.2 kg/m3, the mass density (9576.4 kPa) was 962.1 ± 1.2 kg/m3 and the mass density (9591.9 kPa) was 962.1 ± 1.2 kg/m3. The mass density (9617.9 kPa) was 962 ± 1.2 kg/m3, the mass density (9633.3 kPa) was 961.9 ± 1.2 kg/m3 and the mass density (9646.7 kPa) was 962.2 ± 1.2 kg/m3. For the same molecule, the mass density (9660.3 kPa) was 962.1 ± 1.2 kg/m3, the mass density (9673.6 kPa) was 962.1 ± 1.2 kg/m3 and the mass density (9689.4 kPa) was 962.3 ± 1.2 kg/m3. The mass density (9702.7 kPa) was 962.2 ± 1.2 kg/m3, the mass density (9716.1 kPa) was 962.2 ± 1.2 kg/m3 and the mass density (9732.2 kPa) was 962.1 ± 1.2 kg/m3. The mass density (9788.5 kPa) was 962.2 ± 1.2 kg/m3, the mass density (9802.3 kPa) was 962.3 ± 1.2 kg/m3 and the mass density (9818.5 kPa) was 962.2 ± 1.2 kg/m3. The mass density (9832.1 kPa) was 962.3 ± 1.2 kg/m3, the mass density (9845.9 kPa) was 962.3 ± 1.2 kg/m3 and the mass density (9862.6 kPa) was 962.3 ± 1.2 kg/m3. For the same molecule, the mass density (9876.5 kPa) was 962.3 ± 1.2 kg/m3, the mass density (9890.5 kPa) was 962.4 ± 1.2 kg/m3 and the mass density (9906.8 kPa) was 962.3 ± 1.2 kg/m3. For the same molecule, the mass density (9920.8 kPa) was 962.3 ± 1.2 kg/m3, the mass density (9951.3 kPa) was 962.3 ± 1.2 kg/m3 and the mass density (10010 kPa) was 962.4 ± 1.2 kg/m3. For the same molecule, the mass density (10071 kPa) was 962.3 ± 1.2 kg/m3, the mass density (10088 kPa) was 962.5 ± 1.2 kg/m3 and the mass density (10103 kPa) was 962.5 ± 1.2 kg/m3. The mass density (10117 kPa) was 962.4 ± 1.2 kg/m3.
